In the experiment the target is interaction between p53 and MDM2 proteins (Homo sapiens, UniProt Q00987). Briefly: HTRF assay of inhibition of the p53-MDM2 interaction (GST-MDM2 / biotinylated p53 peptide). Type of experiment: binding. The following applies: recombinant GST-tagged MDM2 and biotinylated p53 peptide, bsa:0.02%. The procedure: The ability of the compounds to inhibit the interaction between p53 and MDM2 proteins was measured by an HTRF (homogeneous time-resolved fluorescence) assay in which recombinant GST-tagged MDM2 binds to a peptide that resembles the MDM2-interacting region of p53. Binding of GST-MDM2 protein and p53-peptide (biotinylated on its N-terminal end) is registered by the FRET (fluorescence resonance energy transfer) between Europium (Eu)-labeled anti-GST antibody and streptavidin-conjugated Allophycocyanin (APC).
interaction between p53 and MDM2 proteins, sequence (Q00987 whole entry): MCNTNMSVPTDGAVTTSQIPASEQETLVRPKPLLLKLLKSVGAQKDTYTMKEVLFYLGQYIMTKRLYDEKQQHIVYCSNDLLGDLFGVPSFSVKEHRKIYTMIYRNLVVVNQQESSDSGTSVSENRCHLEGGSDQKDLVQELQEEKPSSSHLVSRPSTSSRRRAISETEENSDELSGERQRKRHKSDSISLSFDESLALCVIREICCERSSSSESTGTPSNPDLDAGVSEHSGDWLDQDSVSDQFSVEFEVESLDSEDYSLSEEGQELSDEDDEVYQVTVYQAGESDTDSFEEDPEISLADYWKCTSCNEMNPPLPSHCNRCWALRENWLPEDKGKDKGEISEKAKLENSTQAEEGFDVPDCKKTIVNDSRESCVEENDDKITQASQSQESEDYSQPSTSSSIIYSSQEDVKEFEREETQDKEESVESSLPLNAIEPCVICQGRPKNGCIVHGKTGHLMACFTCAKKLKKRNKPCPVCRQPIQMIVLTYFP
Add 10 uL diluted compounds (1:5 dilution in reaction buffer) to each well, mix by shaking. Add 20 uL biotinylated p53 peptide (180 nM working solution) in reaction buffer to each well and mix on shaker. Incubate at 37° C. for 1 h. Add 20 uL streptavidin-APC and Eu-anti-GST antibody mixture (6 nM Eu-anti-GST and 60 nM streptavidin-APC working solution) in TBS buffer with 0.2% BSA, shake at room temperature for 30 minutes and read using a TRF-capable plate reader at
665 and 615 nm (Victor 5, Perkin ElmerWallac). If not specified, the reagents were purchased from Sigma Chemical Co.
In general, IC50 refers to the concentration at which inhibition is half-maximal. `CC(C)(C)C[C@@H]1N[C@@H](C(=O)Nc2ccc(CCC(N)=O)cc2)[C@H](c2cccc(Cl)c2F)[C@]12C(=O)Nc1cc(Cl)ccc12` (racemic) [Example 211, rac-(2′S,3′R,4′S,5′R)-6-chloro-4′-(3-chloro-2-fluoro-phenyl)-2′-(2,2-dimethyl-propyl)-2-oxo-1,2-dihydro-spiro[indole-3,3′-pyrrolidine]-5′-carboxylic acid [4-(2-carbamoyl-ethyl)-phenyl]-amide]: the IC50 turned out to be 15 nM.
To `CC(C)(C)C[C@@H]1N[C@@H](C(=O)Nc2ccc(C(N)=O)s2)[C@H](c2cccc(Cl)c2F)[C@]12C(=O)Nc1cc(Cl)ccc12` (racemic) [Example 188, rac-(2′S,3′R,4′S,5′R)-6-chloro-4′-(3-chloro-2-fluoro-phenyl)-2′-(2,2-dimethyl-propyl)-2-oxo-1,2-dihydro-spiro[indole-3,3′-pyrrolidine]-5′-carboxylic acid (5-carbamoyl-thiophen-2-yl)-amide] belongs 8 nM.
Next, `CC(C)(C)C[C@@H]1N[C@@H](C(=O)Nc2ccc(C(N)=O)cc2)[C@H](c2cccc(Cl)c2F)[C@]12C(=O)Nc1cc(Cl)ccc12` (racemic) [Example 8, rac-(2′S,3′R,4′S,5′R)-6-chloro-4′-(3-chloro-2-fluoro-phenyl)-2′-(2,2-dimethyl-propyl)-2-oxo-1,2-dihydro-spiro[indole-3,3′-pyrrolidine]-5′-carboxylic acid (4-carbamoyl-phenyl)-amide]: 7 nM.
For `CC(C)(C)C[C@@H]1N[C@@H](C(=O)Nc2ccc(C(N)=O)cc2)[C@H](c2cccc(Cl)c2F)[C@]12C(=O)Nc1cc(Cl)c(F)cc12` (racemic) [Example 49, rac-(2′S,3′R,4′S,5′R)-6-chloro-4′-(3-chloro-2-fluoro-phenyl)-2′-(2,2-dimethyl-propyl)-5-fluoro-2-oxo-1,2-dihydro-spiro[indole-3,3′-pyrrolidine]-5′-carboxylic acid (4-carbamoyl-phenyl)-amide], the IC50 came to 13 nM.
To `CC(C)(C)C[C@@H]1N[C@@H](C(=O)Nc2ccc3sc(C(=O)O)cc3c2)[C@H](c2cccc(Cl)c2F)[C@]12C(=O)Nc1cc(Cl)ccc12` (racemic) [Example 213, rac-5-{[(2′S,3′R,4′S,5′R)-6-chloro-4′-(3-chloro-2-fluoro-phenyl)-2′-(2,2-dimethyl-propyl)-2-oxo-1,2-dihydro-spiro[indole-3,3′-pyrrolidine]-5′-carbonyl]amino}-benzo[b]thiophene-2-carboxylic acid] belongs 14 nM; to `COc1cc(C(=O)O)ccc1NC(=O)[C@@H]1N[C@@H](CC(C)(C)C)[C@@]2(C(=O)Nc3cc(Cl)ccc32)[C@H]1c1cccc(Cl)c1F` (racemic) [Example 110, rac-4-{[(2′S,3′R,4′S,5′R)-6-chloro-4′-(3-chloro-2-fluoro-phenyl)-2′-(2,2-dimethyl-propyl)-2-oxo-1,2-dihydro-spiro[indole-3,3′-pyrrolidine]-5′-carbonyl]-amino}-3-methoxy-benzoic acid], 11 nM.
To `COc1cc(OCCSC)ccc1NC(=O)[C@@H]1N[C@@H](CC(C)(C)C)[C@@]2(C(=O)Nc3cc(Cl)ccc32)[C@H]1c1cccc(Cl)c1F` [Example 169, chiral (2′S,3′R,4′S,5′R)-6-chloro-4′-(3-chloro-2-fluoro-phenyl)-2′-(2,2-dimethyl-propyl)-2-oxo-1,2-dihydro-spiro[indole-3,3′-pyrrolidine]-5′-carboxylic acid [2-methoxy-4-(2-methylsulfanyl-ethoxy)-phenyl]-amide] belongs 11 nM; to `CC(C)(C)C[C@@H]1N[C@@H](C(=O)Nc2ccc(C#N)cc2)[C@H](c2cccc(Cl)c2F)[C@]12C(=O)Nc1cc(Cl)ccc12` [Example 137, chiral (2′S,3′R,4′S,5′R)-6-chloro-4′-(3-chloro-2-fluoro-phenyl)-2′-(2,2-dimethyl-propyl)-2-oxo-1,2-dihydro-spiro[indole-3,3′-pyrrolidine]-5′-carboxylic acid (4-cyano-phenyl)-amide], 5 nM.
For the compound `CC(C)(C)C[C@@H]1N[C@@H](C(=O)Nc2ccn(CC(C)(C)O)n2)[C@H](c2cccc(Cl)c2F)[C@]12C(=O)Nc1cc(Cl)ccc12` (racemic) [Example 55, rac-(2′S,3′R,4′S,5′R)-6-chloro-4′-(3-chloro-2-fluoro-phenyl)-2′-(2,2-dimethyl-propyl)-2-oxo-1,2-dihydro-spiro[indole-3,3′-pyrrolidine]-5′-carboxylic acid [1-(2-hydroxy-2-methyl-propyl)-1H-pyrazol-3-yl]-amide trifluoroacetic acid], the concentration for half-maximal inhibition (IC50) came out at 13 nM.
To `COc1cc(NC(=O)[C@@H]2N[C@@H](CC(C)(C)C)[C@@]3(C(=O)Nc4cc(Cl)ccc43)[C@H]2c2cccc(Cl)c2F)ccc1C(=O)O` [Example 17, chiral 4-{[(2′S,3′R,4′S,5′R)-6-chloro-4′-(3-chloro-2-fluoro-phenyl)-2′-(2,2-dimethyl-propyl)-2-oxo-1,2-dihydro-spiro[indole-3,3′-pyrrolidine]-5′-carbonyl]-amino}-2-methoxy-benzoic acid] belongs 4 nM; to `COc1cc(S(=O)(=O)N2CCOCC2)ccc1NC(=O)[C@@H]1N[C@@H](CC(C)(C)C)[C@@]2(C(=O)Nc3cc(Cl)ccc32)[C@H]1c1cccc(Cl)c1F` (racemic) [Example 138, rac-(2′S,3′R,4′S,5′R)-6-chloro-4′-(3-chloro-2-fluoro-phenyl)-2′-(2,2-dimethyl-propyl)-2-oxo-1,2-dihydro-spiro[indole-3,3′-pyrrolidine]-5′-carboxylic acid [2-methoxy-4-(morpholine-4-sulfonyl)-phenyl]-amide], 13 nM; to `CC(C)(C)C[C@@H]1N[C@@H](C(=O)Nc2cccc(C(N)=O)c2)[C@H](c2cccc(Cl)c2F)[C@]12C(=O)Nc1cc(Cl)ccc12` (racemic) [Example 33, rac-(2′S,3′R,4′S,5′R)-6-chloro-4′-(3-chloro-2-fluoro-phenyl)-2′-(2,2-dimethyl-propyl)-2-oxo-1,2-dihydro-spiro[indole-3,3′-pyrrolidine]-5′-carboxylic acid (3-carbamoyl-phenyl)-amide], 13 nM.
On to `COc1cc(C(N)=O)ccc1NC(=O)[C@@H]1N[C@@H](CC(C)(C)C)[C@@]2(C(=O)Nc3cc(Cl)c(F)cc32)[C@H]1c1cccc(Cl)c1F` (racemic) [Example 113, rac-(2′S,3′R,4′S,5′R)-6-chloro-4′-(3-chloro-2-fluoro-phenyl)-2′-(2,2-dimethyl-propyl)-5-fluoro-2-oxo-1,2-dihydro-spiro[indole-3,3′-pyrrolidine]-5′-carboxylic acid (4-carbamoyl-2-methoxy-phenyl)-amide], for which the 50% inhibitory concentration (IC50) amounted to 9 nM.
As for `COC(=O)c1cc(OC)c(NC(=O)[C@@H]2N[C@@H](CC(C)(C)C)[C@@]3(C(=O)Nc4cc(Cl)ccc43)[C@H]2c2cccc(Cl)c2F)cc1F` (racemic) [Example 214, rac-4-{[(2′S,3′R,4′S,5′R)-6-chloro-4′-(3-chloro-2-fluoro-phenyl)-2′-(2,2-dimethyl-propyl)-2-oxo-1,2-dihydro-spiro[indole-3,3′-pyrrolidine]-5′-carbonyl]amino}-2-fluoro-5-methoxy-benzoic acid methyl ester], the IC50 stood at 20 nM.
